Reference: patent US10577373B2, “TYK2 inhibitors and uses thereof” (Nimbus Lakshmi, Inc., priority 2017, dated 2020)
pIC50: −log10 of the molar value. Where two headings read alike, the source gives them in different places.

What was measured:
[1] = test system: GM-CSF induced STAT5 phosphorylation mediated by the JAK2/JAK2 homdimeric complex; assay: GM-CSF Induced pSTAT5 in Human PBMC; conditions: GM-CSF 5 ng/mL for 20 minutes, pSTAT5
Description: Human PBMC are isolated from buffy coat and are stored frozen for assays as needed.

[2] = test system: IL-12 induced STAT4 phophorylation mediated by Tyk2/JAK2 (heterodimeric complex); assay: IL-12 Induced pSTAT4 in Human PBMC; assay type: cell-based; conditions: 1.7 ng/mL IL-12
Description: The IL-12 Induced pSTAT4 assay evaluates the inhibition of IL-12 induced STAT4 phophorylation mediated by Tyk2/JAK2 (heterodimeric complex).

[3] = Homo sapiens, PBMC, 20 min, read-out: PBMC_GMCSF_pSTAT5 IC50, human PBMC
[4] = read-out: PBMC_GMCSF_pSTAT5 IC50, human PBMC

| SMILES | pIC50 [1, 3] | pIC50 [2] | pIC50 [1, 4] |
| --- | --- | --- | --- |
| CNc1cc(Nc2cccc(N3CCCC3=O)n2)nc2c(C(N)=O)cnn12 [I-47] | < 6.52 | > 7.00 | – |
| CNc1cc(Nc2cc(Cl)cn(C3CCN(C)CC3)c2=O)nc2c(C(=O)N[C@@H]3CC[C@H]3O)cnn12 [I-930] | < 4.30 | > 7.00 | – |
| CNc1cc(Nc2cccc([C@H]3CCCOC3)n2)nc2c(C(=O)N[C@H]3C[C@H]3F)cnn12 [I-563] | < 4.30 | > 7.00 | – |
| CNc1cc(Nc2cc(F)cn(-c3cnn(C)c3)c2=O)nc2c(C(=O)NC3CC3)cnn12 [I-380] | < 4.90 | > 7.00 | – |
| CNc1cc(Nc2cccnc2OC2CC2)nc2c(C(=O)N[C@H]3COC[C@H]3O)cnn12 [I-547] | < 4.30 | 6.30 to 7.00 | – |
| CNc1cc(Nc2cc(Cl)cn(-c3cnc(C(=O)N(C)C)cn3)c2=O)nc2c(C(=O)N[C@H]3C[C@H]3F)cnn12 [I-319] | < 5.60 | > 7.00 | – |
| CNc1cc(Nc2cc(F)cn(-c3ccn(C)n3)c2=O)nc2c(C(=O)NC3CC3)cnn12 [I-378] | < 4.90 | > 7.00 | – |
| CNc1cc(Nc2cccn(-c3cc(C)on3)c2=O)nc2c(C(=O)NC3CCC3)cnn12 [I-160] | < 4.90 | > 7.00 | – |
| CNc1cc(Nc2cccn([C@H]3CC[C@H](OC)CC3)c2=O)nc2c(C(=O)NCC(C)(C)CO)cnn12 [I-544] | < 5.60 | > 7.00 | – |
| CNc1cc(Nc2cccc(N3CCCC3=O)n2)nc2c(C(=O)N[C@H]3C[C@H]3F)cnn12 [I-244] | < 4.90 | > 7.00 | – |
| CNc1cc(Nc2cc(C)cc(C)c2)nc2c(C(N)=O)cnn12 [I-2, 5-((3,5-dimethylphenyl)amino)-7-(methylamino)pyrazolo[1,5-a]pyrimidine-3-carboxamide] | < 4.30 | > 7.00 | – |
| CNc1cc(Nc2cccc([C@@H]3CCCOC3)n2)nc2c(C(=O)N[C@H]3CC[C@@H]3O)cnn12 [I-603] | < 5.60 | > 7.00 | – |
| CNc1cc(Nc2cccc(N3CCO[C@]4(CCOC4)C3)n2)nc2c(C(=O)NC3CC3)cnn12 [I-827] | < 4.30 | 6.30 to 7.00 | – |
| CNc1cc(Nc2cccnc2OCCOC)nc2c(C(=O)NC3CCC3)cnn12 [I-219] | < 4.90 | > 7.00 | – |
| CNc1cc(-c2cn(C3CC3)c3ncccc23)nc2c(C(=O)N[C@H]3CC[C@H]3O)cnn12 [I-992, 5-(1-cyclopropyl-1H-pyrrolo[2,3-b]pyridin-3-yl)-N-((1S,2R)-2-hydroxycyclobutyl)-7-(methylamino)pyrazolo[1,5-a]pyrimidine-3-carboxamide] | < 4.30 | > 7.00 | – |
| CNc1cc(-c2cn(C(C)C)c3ncccc23)nc2c(C(=O)N[C@H]3CC[C@@H]3O)cnn12 [I-639] | – | > 7.00 | < 4.90 |
| CNc1cc(Nc2cccn(C3CCCCC3)c2=O)nc2c(C(=O)N[C@@H]3CC[C@H]3O)cnn12 [I-943] | < 4.30 | > 7.00 | – |
| CNc1cc(Nc2cccn([C@@H]3CCCOC3)c2=O)nc2c(C(=O)N[C@@H]3C[C@@H]3F)cnn12 [I-474] | < 4.90 | > 7.00 | – |
| CNc1cc(Nc2cc(Cl)cn(-c3ncc(C)s3)c2=O)nc2c(C(=O)N[C@H]3C[C@H]3F)cnn12 [I-323] | < 5.60 | > 7.00 | – |

| SMILES | pIC50 [1, 3] | pIC50 [2] | pIC50 [1, 4] |
| --- | --- | --- | --- |
| CNc1cc(Nc2cccn([C@H]3CC[C@](C)(OC)CC3)c2=O)nc2c(C(=O)N[C@@H]3CC[C@@H]3O)cnn12 [I-670, N-(2-hydroxycyclobutyl)-5-((1-((1R,4S)-4-methoxy-4-methylcyclohexyl)-2-oxo-1,2-dihydropyridin-3-yl)amino)-7-(methylamino)pyrazolo[1,5-a]pyrimidine-3-carboxamide] | – | > 7.00 | < 4.30 |
| CNc1cc(-c2cn(C(C)C)c3ncccc23)nc2c(C(=O)NC3CCC3)cnn12 [I-224] | < 4.30 | > 7.00 | – |
| CNc1cc(Nc2cccc(-c3nccs3)c2Cl)nc2c(C(N)=O)cnn12 [I-16] | < 5.60 | > 7.00 | – |
| CNc1cc(Nc2cccn(-c3cccc(C)n3)c2=O)nc2c(C(=O)N[C@H]3C[C@H]3F)cnn12 [I-131] | < 4.90 | > 7.00 | – |
| CNc1cc(-c2cn(C(C)C)c3ncccc23)nc2c(C(=O)N[C@@H]3CC[C@@H]3O)cnn12 [I-578] | < 4.30 | > 7.00 | – |
| CNc1cc(Nc2cccn(-c3ccc(OC)cn3)c2=O)nc2c(C(=O)NC3CCC3)cnn12 [I-266] | < 4.90 | > 7.00 | – |
| CNc1cc(Nc2cccn(-c3cnc(C(=O)N(C)C)cn3)c2=O)nc2c(C(=O)NC3CCC3)cnn12 [I-122] | < 5.60 | > 7.00 | – |
| CNc1cc(Nc2cc(Cl)cn(-c3cnn(C)c3)c2=O)nc2c(C(=O)NC3CC3)cnn12 [I-311] | < 4.90 | > 7.00 | – |
| CNc1cc(Nc2cccn(-c3cncc(C)c3)c2=O)nc2c(C(=O)NC3CCC3)cnn12 [I-303] | < 4.30 | > 7.00 | – |
| CNc1cc(Nc2cccn(-c3ccc(N4CCOCC4)cn3)c2=O)nc2c(C(=O)NC3CCC3)cnn12 [I-163] | < 5.60 | > 7.00 | – |
| CNc1cc(Nc2cc(Cl)cn(-c3cc(C)n(C)n3)c2=O)nc2c(C(=O)N[C@H]3C[C@H]3F)cnn12 [I-315] | < 4.90 | > 7.00 | – |
| CNc1cc(-c2c[nH]c3c(C4CCOCC4)cc(Cl)cc23)nc2c(C(N)=O)cnn12 [I-190] | < 4.90 | > 7.00 | – |
| CNc1cc(Nc2cccc(C)c2Cl)nc2c(C(N)=O)cnn12 [I-14] | < 4.30 | > 7.00 | – |
| CNC(=O)c1occc1Nc1cc(NC)n2ncc(C(=O)NC3CC3)c2n1 [I-887] | < 4.30 | > 7.00 | – |
| [2H]C([2H])([2H])Oc1ncccc1Nc1cc(NC)n2ncc(C(=O)N[C@@H]3CC[C@@H]3O)c2n1 (stereo in doubt) [I-391, N-(2-hydroxycyclobutyl)-5-((2-(methoxy-d3)pyridin-3-yl)amino)-7-(methylamino)pyrazolo[1,5-a]pyrimidine-3-carboxamide] | – | > 7.00 | < 4.30 |
| CNc1cc(Nc2cccn(-c3ccc(N4CCOCC4)cc3)c2=O)nc2c(C(=O)N[C@H]3C[C@H]3F)cnn12 [I-135] | < 5.60 | > 7.00 | – |
| CNc1cc(Nc2cc(C)cnc2OCCOC)nc2c(C(=O)NC3CC3)cnn12 [I-281] | < 5.60 | 6.30 to 7.00 | – |
| CNc1cc(Nc2cccn([C@H]3CC[C@H](OC)CC3)c2=O)nc2c(C(=O)N[C@@H]3CC[C@@H]3O)cnn12 [I-560] | < 5.60 | > 7.00 | – |
| CNc1cc(Nc2cccn(-c3cn(C)nc3F)c2=O)nc2c(C(=O)NC3CC3)cnn12 [I-606] | < 4.90 | 6.30 to 7.00 | – |

| SMILES | pIC50 [1, 3] | pIC50 [2] | pIC50 [1, 4] |
| --- | --- | --- | --- |
| CNc1cc(Nc2cc(F)cnc2OCCOC)nc2c(C(=O)N[C@H]3C[C@H]3F)cnn12 [I-285] | < 4.30 | > 7.00 | – |
| CNc1cc(Nc2cccn(-c3cnn(CC4CCOCC4)c3)c2=O)nc2c(C(=O)NC3CC3)cnn12 [I-406] | < 4.90 | 6.30 to 7.00 | – |
| CNc1cc(Nc2cccn(C3CCN(CC(F)F)CC3)c2=O)nc2c(C(=O)NC3CCC3)cnn12 [I-192] | < 4.90 | > 7.00 | – |
| CNc1cc(Nc2cccnc2OC)nc2c(C(=O)N[C@@H]3CCC[C@H]3O)cnn12 [I-423, N-((1R,2R)-2-hydroxycyclopentyl)-5-((2-methoxypyridin-3-yl)amino)-7-(methylamino)pyrazolo[1,5-a]pyrimidine-3-carboxamide] | < 4.30 | > 7.00 | – |
| CCONC(=O)c1cnn2c(NC)cc(Nc3cccnc3OC)nc12 [I-409, N-ethoxy-5-((2-methoxypyridin-3-yl)amino)-7-(methylamino)pyrazolo[1,5-a]pyrimidine-3-carboxamide] | < 4.90 | > 7.00 | – |
| CNc1cc(Nc2cc(F)cn(-c3ccn(C)n3)c2=O)nc2c(C(=O)N[C@H]3C[C@H]3F)cnn12 [I-379] | < 5.60 | > 7.00 | – |
| CNc1cc(Nc2cc(F)cn(-c3ccccn3)c2=O)nc2c(C(=O)N[C@H]3C[C@H]3F)cnn12 [I-194] | < 4.90 | > 7.00 | – |
| CNc1cc(Nc2cc(Cl)cn(C3CCCN(C)C3)c2=O)nc2c(C(=O)NC3CC3)cnn12 (stereo not shown) [I-740] | < 5.60 | > 7.00 | – |
| CNc1cc(Nc2cc(F)cn(-c3cnn(C)c3)c2=O)nc2c(C(=O)N[C@H]3C[C@H]3F)cnn12 [I-381] | < 4.90 | > 7.00 | – |
| CNc1cc(Nc2cc(Cl)cn([C@H]3CCCOC3)c2=O)nc2c(C(=O)N[C@@H]3C[C@@H]3F)cnn12 [I-772] | < 6.52 | > 7.00 | – |
| CNc1cc(Nc2cccc3ocnc23)nc2c(C(=O)N[C@@H]3CC[C@@H]3O)cnn12 [I-770] | – | > 7.00 | < 5.60 |
| CNc1cc(-c2cn(C(C)C)c3ncccc23)nc2c(C(=O)NC3CC3)cnn12 [I-223] | < 4.90 | > 7.00 | – |
| CNc1cc(Nc2cc(F)ccc2F)nc2c(C(=O)NC3CC3)cnn12 [I-3] | < 4.90 | > 7.00 | – |
| CNc1cc(Nc2cccn(-c3ncc(OC)cc3F)c2=O)nc2c(C(=O)N[C@H]3C[C@H]3F)cnn12 [I-673] | < 4.30 | > 7.00 | – |
| CNc1cc(Nc2cccc3ocnc23)nc2c(C(=O)N[C@H]3C[C@H]3F)cnn12 [I-592] | < 4.90 | > 7.00 | – |
| CNc1cc(-c2cn(C(C)C)c3ncc(Cl)cc23)nc2c(C(N)=O)cnn12 [I-272, 5-(5-chloro-1-isopropyl-1H-pyrrolo[2,3-b]pyridin-3-yl)-7-(methylamino) pyrazolo[1,5-a]pyrimidine-3-carboxamide] | < 4.90 | > 7.00 | – |
| CNc1cc(Nc2cccn([C@H]3CC[C@H](OC)CC3)c2=O)nc2c(C(=O)NCC3(CO)CC3)cnn12 [I-545] | < 5.60 | 6.30 to 7.00 | – |
| CNc1cc(Nc2cc(F)cnc2OC2CC2)nc2c(C(=O)NC3CCC3)cnn12 [I-276] | < 4.30 | > 7.00 | – |
